Where “and” joins values, the source holds several entries; their conditions need not be identical. Equal entries are not always repeated.
Tested on: Brassica plants comprising mutant AHAS alleles
Assay: Field trial, pre-planting treatment (0, 10, 20, 30 g a.i./ha), two locations in Canada: ERG, EST1, EST2, PPTOX, VIG1, VIG2, VIG3 scores
Type: in vivo, Brassica napus
Settings: for vigor3 (VIG3) score, Av: Elite parent line plants
From the text: Tests were set up and conducted to asses the growth and performance of plants comprising AHAS full knock-out alleles, and to further analyze the correlation between the presence of full knockout and missense AHAS genes in Brassica plants and plant growth and herbicide tolerance of the Brassica plants in the field. To this end, the Brassica plants identified in Example 1 and 2 were backcrossed two times with an elite parent line, and subsequently selfed twice to obtain homozygous plants (BC2S2). Plants were grown as row plots in a split plot design with three replicates (main plots=herbicide treatments, subplots=genotypes) at two locations in Canada. Treatment pre-planting was carried out on the soil about two days before sowing with a dose of 0 (treatment A), 10 (treatment B), 20 (treatment C) or 30 (treatment D) g a.i./ha of thiencarbazone methyl. Herbicide tolerance was measured by scoring for different parameters. The parameter emergence (ERG) was scored at the cotyledon stage on a scale 1-9, where 1 means late emergence and 9 means early emergence. Establishment was scored 14 days after sowing (EST1) and 21 days after sowing (EST2). Scores were from 1 to 9, where 1 is the worst establishment (least plants that emerged), and 9 is the best establishment (most plants emerged). Phytotoxicity (PPTOX) was determined after establishment. Plants were evaluated on a scale of 1 to 9, where 1=completely yellowing, 5=50% of plant is yellow and 9=no yellowing. The vigor scores (see above) were determined at 1-2 leaf stage (VIG1), 7 days after VIG1 (VIG2) and 14 days after VIG1 (VIG3). The average values (Av) and standard deviations (SD) of the scores for the different parameters are represented in Table 7a-g.
Further, the contribution of the knock-out allele to herbicide tolerance conferred by the missense allele was calculated. First, the scores were corrected for a possible effect of the growth per se, independent of herbicide treatment. To this end, the scores for treatments B, C and D were divided by the scores for treatment A for the same genotype and for the same parameter (corrected herbicide tolerance scores). Next, the effect of the knock-out allele to these corrected herbicide tolerance scores obtained by the missense allele was calculated. Therefore, the corrected herbicide tolerance scores for the missense—knock-out allele combination was divided by the corrected herbicide tolerance scores for the missense allele—wild-type combination. In case the knock-out allele has no effect on herbicide tolerance conferred by the missense allele, this ratio should be 1. In case the knock-out allele positively contributes to the herbicide tolerance conferred by the missense allele, this ratio should be higher than 1. The results for the contribution of the knock-out allele to herbicide tolerance conferred by the missense allele as calculated above are shown in table 8.

[1] = AHAS1 WT/AHAS3 HETO104, 10 g a.i./ha pre-planting (B), Location A
[2] = AHAS1 WT/AHAS3 HETO104, 10 g a.i./ha pre-planting (B), Location B
[3] = AHAS1 WT/AHAS3 HETO104, 20 g a.i./ha pre-planting (C), Location A
[4] = AHAS1 WT/AHAS3 HETO104, 20 g a.i./ha pre-planting (C), Location B
[5] = AHAS1 WT/AHAS3 HETO104, 30 g a.i./ha pre-planting (D), Location A
[6] = AHAS1 WT/AHAS3 HETO104, 30 g a.i./ha pre-planting (D), Location B
[7] = AHAS1 WT/AHAS3 HETO111, 10 g a.i./ha pre-planting (B), Location A
[8] = AHAS1 WT/AHAS3 HETO111, 10 g a.i./ha pre-planting (B), Location B
[9] = AHAS1 WT/AHAS3 HETO111, 20 g a.i./ha pre-planting (C), Location A
[10] = AHAS1 WT/AHAS3 HETO111, 20 g a.i./ha pre-planting (C), Location B
[11] = AHAS1 WT/AHAS3 HETO111, 30 g a.i./ha pre-planting (D), Location A
[12] = AHAS1 WT/AHAS3 HETO111, 30 g a.i./ha pre-planting (D), Location B
[13] = AHAS1 WT/AHAS3 WT, 10 g a.i./ha pre-planting (B), Location A
[14] = AHAS1 WT/AHAS3 WT, 10 g a.i./ha pre-planting (B), Location B
[15] = AHAS1 WT/AHAS3 WT, 20 g a.i./ha pre-planting (C), Location A
[16] = AHAS1 WT/AHAS3 WT, 20 g a.i./ha pre-planting (C), Location B
[17] = AHAS1 WT/AHAS3 WT, 30 g a.i./ha pre-planting (D), Location A
[18] = AHAS1 WT/AHAS3 WT, 30 g a.i./ha pre-planting (D), Location B
[19] = Elite parent line, 10 g a.i./ha pre-planting (B), Location A
[20] = Elite parent line, 10 g a.i./ha pre-planting (B), Location B
[21] = Elite parent line, 20 g a.i./ha pre-planting (C), Location A
[22] = Elite parent line, 20 g a.i./ha pre-planting (C), Location B
[23] = Elite parent line, 30 g a.i./ha pre-planting (D), Location A
[24] = Elite parent line, 30 g a.i./ha pre-planting (D), Location B
[25] = Elite parent line, treatment B 10 g a.i./ha pre-planting, Location A
[26] = Elite parent line, treatment B 10 g a.i./ha pre-planting, Location B
[27] = Elite parent line, treatment C 20 g a.i./ha pre-planting, Location A
[28] = Elite parent line, treatment C 20 g a.i./ha pre-planting, Location B
[29] = Elite parent line, treatment D 30 g a.i./ha pre-planting, Location A
[30] = Elite parent line, treatment D 30 g a.i./ha pre-planting, Location B
[31] = Location A, treatment B 10 g a.i./ha pre-planting, ratio >1 = positive contribution

COC(=O)c1csc(C)c1S(=O)(=O)NC(=O)n1nc(OC)n(C)c1=O [thiencarbazone-methyl, methyl 4-[(4,5-dihydro-3-methoxy-4-methyl-5-oxo-1H-1,2,4-triazol-1-yl)carbonylsulfamoyl]-5-methylthiophene-3-carboxylate]
phytotoxicity (PPTOX) score, Av [1]: 1.33
vigor1 (VIG1) score, Av [1]: 1.33
vigor2 (VIG2) score, Av [1]: 1.00
establishment (EST2) score, Av [2]: 3.33
phytotoxicity (PPTOX) score, Av [2]: 1.33
vigor2 (VIG2) score, Av [2]: 1.33
establishment (EST2) score, Av [3]: 1.00
phytotoxicity (PPTOX) score, Av [3]: 1.00
vigor1 (VIG1) score, Av [3]: 1.00
vigor2 (VIG2) score, Av [3]: 1.00
establishment (EST2) score, Av [4]: 2.33
phytotoxicity (PPTOX) score, Av [4]: 1.00
vigor1 (VIG1) score, Av [4]: 1.33
vigor2 (VIG2) score, Av [4]: 1.00
establishment (EST2) score, Av [5]: 1.00
phytotoxicity (PPTOX) score, Av [5]: 1.00
vigor1 (VIG1) score, Av [5]: 1.00
vigor2 (VIG2) score, Av [5]: 1.00
establishment (EST2) score, Av [6]: 1.00
phytotoxicity (PPTOX) score, Av [6]: 1.00
vigor1 (VIG1) score, Av [6]: 1.00
vigor2 (VIG2) score, Av [6]: 1.00
establishment (EST2) score, Av [7]: 5.33 and 5.67
vigor1 (VIG1) score, Av [7]: 6.00
vigor2 (VIG2) score, Av [7]: 7.00
phytotoxicity (PPTOX) score, Av [8]: 6.00 and 6.33
vigor1 (VIG1) score, Av [8]: 6.33 and 6.00
vigor2 (VIG2) score, Av [8]: 7.00
establishment (EST2) score, Av [9]: 4.67
phytotoxicity (PPTOX) score, Av [9]: 5.00
vigor1 (VIG1) score, Av [9]: 5.00
vigor2 (VIG2) score, Av [9]: 6.33
establishment (EST2) score, Av [10]: 4.67
vigor1 (VIG1) score, Av [10]: 5.00
vigor2 (VIG2) score, Av [10]: 6.00 and 5.67
establishment (EST2) score, Av [11]: 5.00
phytotoxicity (PPTOX) score, Av [11]: 5.00
vigor1 (VIG1) score, Av [11]: 5.00
vigor2 (VIG2) score, Av [11]: 5.67 and 5.33
phytotoxicity (PPTOX) score, Av [12]: 4.00
vigor1 (VIG1) score, Av [12]: 3.67
vigor2 (VIG2) score, Av [12]: 4.33 and 5.00
establishment (EST2) score, Av [13]: 1.00 and 2.00
phytotoxicity (PPTOX) score, Av [13]: 1.00
vigor1 (VIG1) score, Av [13]: 1.00 and 1.33
vigor2 (VIG2) score, Av [13]: 1.00
establishment (EST2) score, Av [14]: 4.33 and 5.00
phytotoxicity (PPTOX) score, Av [14]: 1.33 and 1.67 and 2.33
vigor1 (VIG1) score, Av [14]: 3.00
vigor2 (VIG2) score, Av [14]: 1.67 and 2.00
establishment (EST2) score, Av [15]: 1.00
phytotoxicity (PPTOX) score, Av [15]: 1.00
vigor1 (VIG1) score, Av [15]: 1.00
vigor2 (VIG2) score, Av [15]: 1.00
establishment (EST2) score, Av [16]: 3.67 and 4.00 and 3.00
phytotoxicity (PPTOX) score, Av [16]: 1.00 and 1.33
vigor1 (VIG1) score, Av [16]: 1.33
vigor2 (VIG2) score, Av [16]: 1.33 and 1.67
establishment (EST2) score, Av [17]: 1.00
phytotoxicity (PPTOX) score, Av [17]: 1.00
vigor1 (VIG1) score, Av [17]: 1.00
vigor2 (VIG2) score, Av [17]: 1.00
establishment (EST2) score, Av [18]: 1.33 and 2.00
phytotoxicity (PPTOX) score, Av [18]: 1.00 and 2.00
vigor1 (VIG1) score, Av [18]: 1.33
vigor2 (VIG2) score, Av [18]: 1.33 and 1.00
vigor3 (VIG3) score, Av (10 g a.i./ha (treatment B) pre-planting, Location A): 1.00
vigor3 (VIG3) score, Av (10 g a.i./ha (treatment B) pre-planting, Location B): 3.67
vigor3 (VIG3) score, Av (20 g a.i./ha (treatment C) pre-planting, Location A): 1.00
vigor3 (VIG3) score, Av (20 g a.i./ha (treatment C) pre-planting, Location B): 1.00
vigor3 (VIG3) score, Av (30 g a.i./ha (treatment D) pre-planting, Location A): 1.00
vigor3 (VIG3) score, Av (30 g a.i./ha (treatment D) pre-planting, Location B): 1.00
establishment (EST2) score, Av [19]: 2.00
phytotoxicity (PPTOX) score, Av [19]: 1.00
vigor1 (VIG1) score, Av [19]: 1.00
vigor2 (VIG2) score, Av [19]: 1.00
establishment (EST2) score, Av [20]: 6.00
phytotoxicity (PPTOX) score, Av [20]: 3.67
vigor1 (VIG1) score, Av [20]: 4.00
vigor2 (VIG2) score, Av [20]: 4.00
establishment (EST2) score, Av [21]: 2.33
phytotoxicity (PPTOX) score, Av [21]: 1.00
vigor1 (VIG1) score, Av [21]: 1.33
vigor2 (VIG2) score, Av [21]: 1.00
establishment (EST2) score, Av [22]: 4.67
phytotoxicity (PPTOX) score, Av [22]: 1.67
vigor1 (VIG1) score, Av [22]: 2.00
vigor2 (VIG2) score, Av [22]: 2.00
establishment (EST2) score, Av [23]: 2.00
phytotoxicity (PPTOX) score, Av [23]: 1.00
vigor1 (VIG1) score, Av [23]: 1.00
vigor2 (VIG2) score, Av [23]: 1.00
establishment (EST2) score, Av [24]: 4.00
phytotoxicity (PPTOX) score, Av [24]: 1.00
vigor1 (VIG1) score, Av [24]: 1.33
vigor2 (VIG2) score, Av [24]: 1.00
emergence (ERG) score Av [25]: 2.00
establishment (EST1) score Av, 14 days after sowing [25]: 2.00
emergence (ERG) score Av [26]: 5.00
establishment (EST1) score Av, 14 days after sowing [26]: 6.67
emergence (ERG) score Av [27]: 2.33
establishment (EST1) score Av, 14 days after sowing [27]: 2.33
emergence (ERG) score Av [28]: 4.33
establishment (EST1) score Av, 14 days after sowing [28]: 4.67
emergence (ERG) score Av [29]: 2.00
establishment (EST1) score Av, 14 days after sowing [29]: 2.00
emergence (ERG) score Av [30]: 3.00
establishment (EST1) score Av, 14 days after sowing [30]: 4.00
relative contribution of HETO104 (AHAS3 KO) to herbicide tolerance conferred by HETO108 (AHAS1 missense): ERG [31]: 0.86
relative contribution of HETO104 (AHAS3 KO) to herbicide tolerance conferred by HETO108 (AHAS1 missense): EST1 [31]: 0.91
relative contribution of HETO104 (AHAS3 KO) to herbicide tolerance conferred by HETO108 (AHAS1 missense): EST2 [31]: 0.95
relative contribution of HETO104 (AHAS3 KO) to herbicide tolerance conferred by HETO108 (AHAS1 missense): PPTOX [31]: 0.83
relative contribution of HETO104 (AHAS3 KO) to herbicide tolerance conferred by HETO108 (AHAS1 missense): VIG1 [31]: 0.90
relative contribution of HETO104 (AHAS3 KO) to herbicide tolerance conferred by HETO108 (AHAS1 missense): VIG2 [31]: 0.88
relative contribution of HETO104 (AHAS3 KO) to herbicide tolerance conferred by HETO108 (AHAS1 missense): VIG3 [31]: 0.96
relative contribution of HETO112 (AHAS1 KO) to herbicide tolerance conferred by HETO111 (AHAS3 missense): ERG [31]: 0.85
relative contribution of HETO112 (AHAS1 KO) to herbicide tolerance conferred by HETO111 (AHAS3 missense): EST1 [31]: 0.92
relative contribution of HETO112 (AHAS1 KO) to herbicide tolerance conferred by HETO111 (AHAS3 missense): EST2 [31]: 1.04
relative contribution of HETO112 (AHAS1 KO) to herbicide tolerance conferred by HETO111 (AHAS3 missense): PPTOX [31]: 1.06
relative contribution of HETO112 (AHAS1 KO) to herbicide tolerance conferred by HETO111 (AHAS3 missense): VIG1 [31]: 1.10
